Values quoted from earlier work in patent US7374770B2, “Topical composition for follicular delivery of an ornithine decarboxylase inhibitor” (SkinMedica, Inc., priority 2001, dated 2008).

Conditions: undesirable secondary pharmacological effect, known

## C#CC(N)CCCN (stereo not shown) [5-hexyne-1,4-diamine]
  brain 4-aminobutyric acid levels: increases
